# Data published in patent publication US20240025856A1, “1,2,3,4-TETRAHYDROQUINOLINE DERIVATIVES AS INHIBITORS OF THE YAP/TAZ-TEAD ACTIVATION FOR TREATING CANCER” (KATHOLIEKE UNIVERSITEIT LEUVEN, priority 2020, published 2024).
# Tested on: YAP/TAZ-TEAD transcription
# Assay: Reporter gene assay for measuring the inhibition of YAP/TAZ-TEAD transcription (TEAD-responsive element luciferase reporter in Hek293T cells)
# Type: cell-based
# Details: Hek293T cells transiently transfected with TEAD-responsive element luciferase reporter; 24 hours incubation
# In short: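 Readout is SteadyLite luciferase luminescence from a TEAD-responsive element reporter transiently transfected into Hek293T cells, exposed to compounds for 24 h at 37 °C/5% CO2. IC50 derived from percent inhibition, scaled between vehicle basal activity (0%) and positive control inhibitor (100%).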
row,IC50,Compound
1,1 to 20 µM,"C=CC(=O)NCC1Cc2c(CC(=O)O)cccc2N(c2ccc(C(F)(F)F)cc2)C1 (stereo not drawn) [Cpd. No. 161, 2-(3-(acrylamidomethyl)-1-(4-(trifluoromethyl)phenyl)-1,2,3,4-tetrahydroquinolin-5-yl)acetic acid]"

# Same assay, conditions: Homo sapiens, HEK-293T, 24 h, Hek293T cells transiently transfected with TEAD-responsive element luciferase reporter; 24 hours incubation
row,IC50,Compound
1,< 1 µM,"C=CC(=O)NCC1Cc2ccccc2N(c2ccc(C(F)(F)F)cc2)C1 (single isomer, unassigned) [084-En2, N-((1-(4-(trifluoromethyl)phenyl)-1,2,3,4-tetrahydroquinolin-3-yl)methyl)acrylamide]"
2,1 to 20 µM,"N#CC1CN(C2Cc3ccccc3N(c3ccc(C(F)(F)F)cc3)C2)C1=O (stereo not drawn) [compound 042, 2-oxo-1-(1-(4-(trifluoromethyl)phenyl)-1,2,3,4-tetrahydroquinolin-3-yl)azetidine-3-carbonitrile]"
3,< 1 µM,"C=CC(=O)NC1Cc2ccccc2N(c2ccc(C(C)C)cc2)C1 (stereo not drawn) [compound 004, N-(1-(4-isopropylphenyl)-1,2,3,4-tetrahydroquinolin-3-yl)acrylamide]"
4,1 to 20 µM,"CCC(=O)NC1Cc2c(Cc3ccccc3)cccc2N(c2ccc(C(F)(F)F)cc2)C1 (stereo not drawn) [compound 067, N-(5-benzyl-1-(4-(trifluoromethyl)phenyl)-1,2,3,4-tetrahydroquinolin-3-yl)propionamide]"
5,< 1 µM,"C=CC(=O)NCC1Cc2ccccc2N(c2ccc(C#N)nc2)C1 (stereo not drawn) [compound 151, N-((1-(6-cyanopyridin-3-yl)-1,2,3,4-tetrahydroquinolin-3-yl)methyl)acrylamide]"
6,< 1 µM,"C=CC(=O)NC1Cc2ccccc2N(c2ccc3cc[nH]c3c2)C1 (stereo not drawn) [compound 017, N-(1-(1H-indol-6-yl)-1,2,3,4-tetrahydroquinolin-3-yl)acrylamide]"
7,> 20 µM,"C=CC(=O)NC1Cc2ccccc2N(C(=O)C2CCCCC2)C1 (stereo not drawn) [Cpd. No. 173, N-(1-(cyclohexanecarbonyl)-1,2,3,4-tetrahydroquinolin-3-yl)acrylamide]"
8,< 1 µM,"C=CC(=O)NCC1Cc2ccccc2N(c2cccc(OC)c2)C1 (stereo not drawn) [compound 090, N-((1-(3-methoxyphenyl)-1,2,3,4-tetrahydroquinolin-3-yl)methyl)acrylamide]"
9,> 20 µM,"C=CC(=O)NC1Cc2c(C(=O)NS(C)(=O)=O)cccc2N(c2ccc(C(F)(F)F)cc2)C1 (stereo not drawn) [compound 160, 3-acrylamido-N-(methylsulfonyl)-1-(4-(trifluoromethyl)phenyl)-1,2,3,4-tetrahydroquinoline-5-carboxamide]"
10,> 20 µM,"C=CC(=O)NC1Cc2c(CC(=O)O)cccc2N(c2ccc(C(F)(F)F)cc2)C1 (stereo not drawn) [compound 162, 2-(3-acrylamido-1-(4-(trifluoromethyl)phenyl)-1,2,3,4-tetrahydroquinolin-5-yl)acetic acid]"
11,1 to 20 µM,"C=CC(=O)NC1Cc2ccccc2N(c2ccc3[nH]ccc3c2)C1 (stereo not drawn) [compound 016, N-(1-(1H-indol-5-yl)-1,2,3,4-tetrahydroquinolin-3-yl)acrylamide]"
12,< 1 µM,"C=CC(=O)NCC1Cc2ccccc2N(C2CCCCC2)C1 (stereo not drawn) [compound 118, N-((1-cyclohexyl-1,2,3,4-tetrahydroquinolin-3-yl)methyl)acrylamide]"
13,< 1 µM,"C=CC(=O)NCC1Cc2ccccc2N(c2ccc(C(F)F)cc2)C1 (stereo not drawn) [compound 105, N-((1-(4-(difluoromethyl)phenyl)-1,2,3,4-tetrahydroquinolin-3-yl)methyl)acrylamide]"
14,< 1 µM,"CCC(=O)NCC1Cc2c(Cc3ccccc3)cccc2N(c2ccc(C(F)(F)F)cc2)C1 (stereo not drawn) [compound 130, N-((5-benzyl-1-(4-(trifluoromethyl)phenyl)-1,2,3,4-tetrahydroquinolin-3-yl)methyl)propionamide]"
15,< 1 µM,"C=CC(=O)NCC1Cc2ccccc2N(c2ccc(OC)cc2)C1 (stereo not drawn) [compound 091, N-((1-(4-methoxyphenyl)-1,2,3,4-tetrahydroquinolin-3-yl)methyl)acrylamide]"
16,1 to 20 µM,"N#CCCNCC1Cc2ccccc2N(c2ccc(C(F)(F)F)cc2)C1 (stereo not drawn) [compound 126, 3-(((1-(4-(trifluoromethyl)phenyl)-1,2,3,4-tetrahydroquinolin-3-yl)methyl)amino)propanenitrile]"
17,< 1 µM,"CN(C)C/C=C/C(=O)NCC1Cc2ccccc2N(c2ccc(C(F)(F)F)cc2)C1 (stereo not drawn) [compound 120, (E)-4-(dimethylamino)-N-((1-(4-(trifluoromethyl)phenyl)-1,2,3,4-tetrahydroquinolin-3-yl)methyl)but-2-enamide]"
18,< 1 µM,"C=CC(=O)NC1Cc2c(Cc3cccc(F)c3)cccc2N(c2ccc(C(F)(F)F)cc2)C1 (stereo not drawn) [compound 063, N-(5-(3-fluorobenzyl)-1-(4-(trifluoromethyl)phenyl)-1,2,3,4-tetrahydroquinolin-3-yl)acrylamide]"
19,> 20 µM,"C=CC(=O)NC1Cc2c(-c3nnn[nH]3)cccc2N(c2ccc(C(F)(F)F)cc2)C1 (stereo not drawn) [compound 137, N-(5-(1H-tetrazol-5-yl)-1-(4-(trifluoromethyl)phenyl)-1,2,3,4-tetrahydroquinolin-3-yl)acrylamide]"

row,IC50,Compound
1,> 20 µM,"CC(C)(C)OC(=O)NC1Cc2c(Br)cccc2N(c2ccc(C(F)(F)F)cc2)C1 (stereo not drawn) [compound 055, tert-butyl (5-bromo-1-(4-(trifluoromethyl)phenyl)-1,2,3,4-tetrahydroquinolin-3-yl)carbamate]"
2,1 to 20 µM,"OCCCNC1Cc2ccccc2N(c2ccc(C(F)(F)F)cc2)C1 (stereo not drawn) [compound 045, 3-((1-(4-(trifluoromethyl)phenyl)-1,2,3,4-tetrahydroquinolin-3-yl)amino)propan-1-ol]"
3,< 1 µM,"N#CCC(=O)NCC1Cc2ccccc2N(c2ccc(C(F)(F)F)cc2)C1 (stereo not drawn) [compound 125, 2-cyano-N-((1-(4-(trifluoromethyl)phenyl)-1,2,3,4-tetrahydroquinolin-3-yl)methyl)acetamide]"
4,< 1 µM,"C=CC(=O)NC1Cc2c(C(N)=O)cccc2N(c2ccc(C(F)(F)F)cc2)C1 (stereo not drawn) [compound 136, 3-acrylamido-1-(4-(trifluoromethyl)phenyl)-1,2,3,4-tetrahydroquinoline-5-carboxamide]"
5,> 20 µM,"C=CC(=O)NCC1Cc2c(-c3noc(=O)[nH]3)cccc2N(c2ccc(C(F)(F)F)cc2)C1 (stereo not drawn) [compound 167, N-((5-(5-oxo-4,5-dihydro-1,2,4-oxadiazol-3-yl)-1-(4-(trifluoromethyl)phenyl)-1,2,3,4-tetrahydroquinolin-3-yl)methyl)acrylamide]"
6,< 1 µM,"C=CC(=O)NC1Cc2ccccc2N(c2cnc(C(F)(F)F)nc2)C1 (stereo not drawn) [compound 031, N-(1-(2-(trifluoromethyl)pyrimidin-5-yl)-1,2,3,4-tetrahydroquinolin-3-yl)acrylamide]"
7,> 20 µM,"C=CC(=O)NCC1Cc2c(C(=O)O)cccc2N(c2ccc(C(F)(F)F)cc2)C1 (stereo not drawn) [Cpd. No. 156, 3-(acrylamidomethyl)-1-(4-(trifluoromethyl)phenyl)-1,2,3,4-tetrahydroquinoline-5-carboxylic acid]"
8,< 1 µM,"C=CC(=O)NC1Cc2ccccc2N(c2cc(F)cc(F)c2)C1 (stereo not drawn) [compound 027, N-(1-(3,5-difluorophenyl)-1,2,3,4-tetrahydroquinolin-3-yl)acrylamide]"
9,> 20 µM,"C=CC(=O)NC1Cc2c(CC(=O)NS(C)(=O)=O)cccc2N(c2ccc(C(F)(F)F)cc2)C1 (stereo not drawn) [compound 165, N-(5-(2-(methylsulfonamido)-2-oxoethyl)-1-(4-(trifluoromethyl)phenyl)-1,2,3,4-tetrahydroquinolin-3-yl)acrylamide]"
10,< 1 µM,"C=CC(=O)NCC1Cc2ccccc2N(c2ccc(OC(F)(F)F)cc2)C1 (stereo not drawn) [compound 106, N-((1-(4-(trifluoromethoxy)phenyl)-1,2,3,4-tetrahydroquinolin-3-yl)methyl)acrylamide]"
11,> 20 µM,"C=CC(=O)NC1Cc2ccccc2N(C(=O)c2ccccc2)C1 (stereo not drawn) [compound 172, N-(1-benzoyl-1,2,3,4-tetrahydroquinolin-3-yl)acrylamide]"
12,< 1 µM,"C=CC(=O)NC1Cc2c(Cc3cccc(C#N)c3)cccc2N(c2ccc(C(F)(F)F)cc2)C1 (stereo not drawn) [compound 062, N-(5-(3-cyanobenzyl)-1-(4-(trifluoromethyl)phenyl)-1,2,3,4-tetrahydroquinolin-3-yl)acrylamide]"
13,> 20 µM,"O=S(=O)(O)CCNCC1Cc2ccccc2N(c2ccc(C(F)(F)F)cc2)C1 (stereo not drawn) [compound 183, 2-(((1-(4-(trifluoromethyl)phenyl)-1,2,3,4-tetrahydroquinolin-3-yl)methyl)amino)ethane-1-sulfonic acid]"
14,< 1 µM,"CC(=O)NC/C=C/C(=O)NCC1Cc2ccccc2N(c2ccc(C(F)(F)F)cc2)C1 (stereo not drawn) [Cpd. No. 193, (E)-4-acetamido-N-((1-(4-(trifluoromethyl)phenyl)-1,2,3,4-tetrahydroquinolin-3-yl)methyl)but-2-enamide]"
15,< 1 µM,"C=CC(=O)NC1Cc2ccccc2N(c2ccc(-c3ccccc3)cc2)C1 (stereo not drawn) [compound 008, N-(1-([1,1′-biphenyl]-4-yl)-1,2,3,4-tetrahydroquinolin-3-yl)acrylamide]"
16,< 1 µM,"C=CC(=O)NC1Cc2ccccc2N(S(=O)(=O)c2ccc(C(F)(F)F)cc2)C1 (stereo not drawn) [compound 187, N-(1-((4-(trifluoromethyl)phenyl)sulfonyl)-1,2,3,4-tetrahydroquinolin-3-yl)acrylamide]"
17,< 1 µM,"C=CC(=O)NCC1Cc2ccccc2N(c2cnc(C(F)(F)F)nc2)C1 (stereo not drawn) [compound 115, N-((1-(2-(trifluoromethyl)pyrimidin-5-yl)-1,2,3,4-tetrahydroquinolin-3-yl)methyl)acrylamide]"
18,< 1 µM,"C=CC(=O)NC1Cc2ccccc2N(Cc2cccc(C(F)(F)F)c2)C1 (stereo not drawn) [compound 182, N-(1-(3-(trifluoromethyl)benzyl)-1,2,3,4-tetrahydroquinolin-3-yl)acrylamide]"
19,< 1 µM,"C=CC(=O)NC1Cc2ccccc2N(S(=O)(=O)c2cccc(C(F)(F)F)c2)C1 (stereo not drawn) [compound 186, N-(1-((3-(trifluoromethyl)phenyl)sulfonyl)-1,2,3,4-tetrahydroquinolin-3-yl)acrylamide]"
